Usually ED50 stands for the midpoint of the dose-response relation. In general, MIC refers to the least concentration at which growth counts as inhibited.

In brackets after ≈: the same amount, converted by molar mass. Several values for one entry are separate records, joined by “and”; a condition that tells them apart may be missing. Identical values can stand only once. Like-named read-outs stand apart in the source and are kept apart here. Bounds are passed on as bounds.

Data set [1] is described as follows: In vivo pharmacokinetic assays in rats (intragastric and intravenous), plasma Compound 14 by LC-MS/MS. Details: species or system SD rats. The protocol: Two routes of administration (intragastric administration and intravenous injection) were employed.
Intragastric administration: Four healthy SD rats, male, weight 200-250 g, were dosed 15 mg/kg; the delivery volume was 10 ml/kg, prepared with 0.5% CMC-Na. The rats were fasted for 12 hrs before administration, free water-drinking. 0.3 ml of venous blood was taken from the posterior venous plexus of rats to heparinized tubes at 0.25, 0.5, 1.0, 2.0, 3.0, 4.0, 5.0, 7.0, 9.0, 24, and 48 hrs after administration, centrifuged at 3500 rpm for 10 mins to separate the plasma, which was then stored at −20° C. for test.
Intravenous injection: Two healthy SD rats, male, weight 200˜250 g, were dosed 5 mg/kg; the delivery volume was 10 ml/kg, prepared with DMSO, Tween 80 and deionized water. The rats were fasted for 12 hrs before administration, free water-drinking. 0.3 ml of venous blood was taken from the posterior venous plexus of rats to heparinized tubes at 5 min, 15 min, and 0.5, 1.0, 2.0, 3.0, 4.0, 5.0, 7.0, 9.0, 24, and 48 hrs after administration, centrifuged at 3500 rpm for 10 mins to separate the plasma, which was then stored at −20° C. for test.
The concentration of Compound 14 in plasma was determined by liquid chromatography tandem mass spectrometry.
In accordance with the above experimental methods, the inventor has determined the in vivo pharmacokinetic properties of phosphate (ester) disodium salt 37 of Compound 14 in rats.

Data set [2] deals with methicillin-resistant Staphylococcus aureus ATCC 33591 (MRSA). Nature of the data set: In vivo antibacterial activity, mice with systemic infection by MRSA, survival at 48 hours. Conditions: female ICR mice, systemic infection (2.35 × 10^7 CFU/mice, intraperitoneal), oral administration 1 hour after infection. The protocol: Test strains: the strain used to infect animals was methicillin-resistant Staphylococcus aureus ATCC 33591 (MRSA).
Experimental animals: female ICR mice, age: 4 to 5 weeks, weight 20 to 22 grams, available from Shanghai Sippr BK Experimental Animal Co., Ltd., qualification certificate No.: 2008001625863.
Experimental method: Mice were randomly divided into groups. There were 4 dosage groups for each subject drug each administration manner: 2.5, 5, 10 and 20 mg/kg, 6 mice for each dosage group. Furthermore, a gastric mucin vehicle group was used as negative control for each administration manner. Mice were intraperitoneally injected with 10^7-10^8 CFU/mL of the bacterial suspension, 0.5 ml/mouse, and at 1 hour after infection the mice were orally administered the corresponding drugs for treatment, dosing volume 0.2 mL/20 g. This research program complied with the provisions and relevant regulations of National Laboratory Animal Management and Welfare.

Data set [3] is described as follows: In vivo pharmacokinetic assays in rats (intragastric and intravenous), plasma Compound 14 by LC-MS/MS. Set-up: species or system SD rats. Conditions: for CLz: parameters of 14 in rats after 10 mg/kg Compound 37 intravenous injection.
A further data set relates to Enterococcus (6 strains). Nature of the data set: In vitro antibacterial activity, MIC by agar double dilution method. The format is cell-based. Conditions: clinical isolates, 35° C. 16 hrs. The essentials: (§1)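 Clinical isolates from the Nanjing region, spotted at about 10^6 CFU/mL onto MIT agar containing drug at 64 down to 0.031 μg/mL in 2-fold steps. Plates incubated 16 hrs at 35° C.; MIC is the lowest concentration with no growth.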

The test system of data set [4] is Staphylococcus aureus resistant strains (6 strains). Described as above. It counts as cell-based. Particulars: clinical isolates. An outline of the steps:
as §1

Data set [5] has as its system Staphylococcus aureus sensitive strains (5 strains). Described as above. Particulars: clinical isolates. The format is cell-based. An outline of the steps:
as §1

For data set [6], the system named is Staphylococcus epidermidis resistant strains (5 strains). The data set is described as above. The format is cell-based. Particulars: clinical isolates. An outline of the steps:
as §1

The subject of data set [7] is Staphylococcus epidermidis sensitive strains (5 strains). The description is as above. Particulars: clinical isolates. It counts as cell-based. An outline of the steps:
as §1

The test system of data set [8] is Streptococcus pneumoniae resistant strains (4 strains). Described as above. It counts as cell-based. Conditions: clinical isolates. An outline of the steps: as §1
The subject of data set [9] is LREFA, linezolid-resistant strain of Enterococcus faecium (3 strains). Nature of the data set: In vitro antibacterial activity on linezolid-resistant strains, MIC in MHB broth, 96-well plate. Conditions: LREFA (3 strains). It counts as cell-based. The method, then:
(§2) The stock solution of the subject drugs in DMSO was 10 mg/mL. MHA (agar) and MHB (broth) were both prepared according to the manufacturer's requirements.
(§3) Double dilution of drugs: under aseptic operation, 12.8 μL of liquid drug was added into the first well of a 96-well plate, and then added 27.2 μL DMSO and mixed. The 2nd to 12nd wells were all added 20 μL DMSO. 20 μL was taken from the first well to the second well and mixed up. 20 μL was taken from the second well to the third well, which was repeated till the 11st well, from which was taken 20 μL and discarded. The 12nd well only had 20 μL of DMSO as the growth control. Then 180 μL of sterile water was added to each well and mixed up. The drug used as control was prepared by the same method.
(§4) The solutions with different concentrations of antibacterial drugs after the double dilution and DMSO were added into a sterile 96-well plate separately, 10 μL per well, ready for use.
(§5) Single colonies were picked from the MHA plates into 5 ml of sterile saline and mixed up.
(§6) Light transmittance was adjusted to 80% with a spectrophotometer. After being diluted by 1:200 with MHB, 90 μL of such bacteria liquid was added into each of the wells which already had 10 μL of the drug liquid, mixed up, and incubated in a regular biochemical incubator at 35° C. for 20 hrs before the results were read out. At this time, the drug concentration in the 1st to 12nd wells was 32, 16, 8, 4, 2, 1, 0.5, 0.25, 0.125, 0.0625, 0.03125, 0 μg/mL, respectively.
(§7) Two parallel groups were set up for the same diluted concentration of a drug.
(§8) 4) Results Reading and Judgment: Refer to the Standard Recommended by the CLSI, 2010 Edition.
(§9) The positive control group was LZ (linezolid, brand name Zyvox, approved by the FDA in 2000 to be firstly sold in the United States, which is the first and also the only one of oxazolidinone antibacterial drugs allowed to enter clinical application).

For data set [10], the system named is LREFL, linezolid-resistant strain of Enterococcus faecalis (3 strains). Described as above. It counts as cell-based. Conditions: LREFL (3 strains). The method, then:
as §2, §3, §4, §5, §6, §7, §8, §9

Data set [11] relates to LRSA, linezolid-resistant strain of Staphylococcus aureus (3 strains). The description is as above. The format is cell-based. Conditions: LRSA (3 strains). The protocol: as §2, §3, §4, §5, §6, §7, §8, §9
The subject of data set [12] is LRSE, linezolid-resistant strain of Staphylococcus epidermidis (1 strain). Described as above. Conditions: LRSE (1 strain). It counts as cell-based. The method, then: as §2, §3, §4, §5, §6, §7, §8, §9
Data set [13] concerns S.a. ATCC 29213 (standard strain of Staphylococcus aureus). Described as above. It counts as cell-based. Conditions: ATCC29213, 35° C. 20 hrs. The protocol: as §2, §3, §4, §5, §6, §7, §8, §9

As to `CN1CC(c2ccc(-c3ccc4c(c3)OC[C@H]3[C@H](COP(=O)([O-])[O-])OC(=O)N43)cn2)OC1=O.[Na+].[Na+]` (stereo partly shown) [Compound 37], the “plasma exposure of 14 of the group receiving 37 relative to the group receiving 14” value in data set [1] (intragastric administration, upon measurement normalization) turned out to be 157%. The “plasma exposure of intravenous injection relative to that of Compound 14” value in [1] (intravenous injection, prodrug 37 vs Compound 14) was 1.34 times. The “oral plasma exposure relative to that of Compound 14” value in [1] (oral, prodrug 37 vs Compound 14) turned out to be 1.5 times. For the same compound, the ED50 in data set [2] came out at 5.00 mg/kg. For the same compound, the CLz was 40.3 mL/min/kg in data set [3] (average value); 41.3 mL/min/kg and 35.7 mL/min/kg and 44 mL/min/kg in data set [3] (individual animals No. 5-7). Further, in data set [3] (rats, intravenous injection, upon measurement normalization), the “plasma exposure of compound 14 of the group receiving 37 relative to the group receiving 14” value stood at 134%.
For the compound `CC(=O)NC[C@H]1CN(c2ccc(N3CCOCC3)c(F)c2)C(=O)O1` [LZ, linezolid, reference compound], the minimum inhibitory concentration (MIC) against Enterococcus (6 strains) is 1 to 2 µg/mL (≈ 2.96 to 5.93 µM); in data set [4], 1 to 2 µg/mL (≈ 2.96 to 5.93 µM); in data set [5] it was 1 to 2 µg/mL (≈ 2.96 to 5.93 µM); in data set [6] it was 1 to 2 µg/mL (≈ 2.96 to 5.93 µM); in data set [7] it was 1 µg/mL (≈ 2.96 µM); in [8], 2 µg/mL (≈ 5.93 µM). Further, the MIC in [9] was 8 to 16 µg/mL (≈ 23.7 to 47.4 µM); in data set [10], 8 to 16 µg/mL (≈ 23.7 to 47.4 µM); in data set [11], more than 32 µg/mL; in data set [12], 16 µg/mL (≈ 47.4 µM); in data set [13], 1 µg/mL (≈ 2.96 µM). In addition, the ED50 in data set [2] (Staphylococcus aureus, read-out: ED50) amounted to 9.87 mg/kg.

Values taken from patent publication US9416144B2, “Benzoxazine oxazolidinone compound, preparation method and application thereof” (priority 2012, dated 2016).
